Data on 18 molecules can be found in ChEMBL document CHEMBL3132748, “Novel inhibitors of breast cancer relevant kinases Brk and HER2” (Medchemcomm, 2014).

pIC50: −log10 of the molar value. Calls of active or inactive are those of the source. The rule behind the calls is not given here. Some results are limits rather than exact numbers.

In assay [1] the target is Receptor tyrosine-protein kinase erbB-2 (Homo sapiens, UniProt P04626). The assay can be described thus: Inhibition of human recombinant GST-fused HER2 expressed in baculovirus Sf9 insect cells using poly(Glu,Tyr) as substrate after 60 mins by scintillation counting.
Assay [2] concerns the target T1, Protein-tyrosine kinase 6 (Homo sapiens, UniProt Q13882). The assay can be described thus: Inhibition of human recombinant GST-fused Brk expressed in baculovirus Sf9 insect cells using poly(Glu,Tyr) as substrate after 60 mins by scintillation counting.
Target sequence in this assay (Q13882 whole entry, the tested form may be a part): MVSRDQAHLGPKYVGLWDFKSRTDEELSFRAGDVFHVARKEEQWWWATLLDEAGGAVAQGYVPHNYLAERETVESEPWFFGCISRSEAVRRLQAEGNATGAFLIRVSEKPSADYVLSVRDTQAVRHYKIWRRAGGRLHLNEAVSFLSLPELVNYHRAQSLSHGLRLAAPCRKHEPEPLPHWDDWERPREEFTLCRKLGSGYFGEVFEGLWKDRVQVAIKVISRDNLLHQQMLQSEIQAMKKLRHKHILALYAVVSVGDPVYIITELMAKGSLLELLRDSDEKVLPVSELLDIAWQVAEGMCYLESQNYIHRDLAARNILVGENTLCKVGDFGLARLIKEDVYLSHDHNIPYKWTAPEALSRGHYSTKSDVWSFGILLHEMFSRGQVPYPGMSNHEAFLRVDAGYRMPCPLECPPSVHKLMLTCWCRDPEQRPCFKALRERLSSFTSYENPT
Assay [3] concerns MDA-MB-468. The assay can be described thus: Antiproliferative activity against human MDA-MB-468 cells by SRB assay. In kind it is functional. On the technique in general: The SRB assay estimates cell density from bound dye.
In assay [4] the test system is MCF7. Kind of assay: Antiproliferative activity against human MCF7 cells by SRB assay. In kind it is functional.
For assay [5], the target named is T1, Protein-tyrosine kinase 6. The assay can be described thus: Inhibition of BRK in human T47D cells assessed as phosphorylation of STAT3 at >100 nM by Western blot analysis. In kind it is cell-based. Background: In western blotting, separated proteins are transferred to a membrane and probed.
Target sequence in this assay (Q13882 whole entry, looked up, the tested form may be a part): as the sequence (Q13882 whole entry, the tested form may be a part) above
For assay [6], the target named is T2, Aurora kinase C (Homo sapiens, UniProt Q9UQB9).
T2 sequence (Q9UQB9 whole entry): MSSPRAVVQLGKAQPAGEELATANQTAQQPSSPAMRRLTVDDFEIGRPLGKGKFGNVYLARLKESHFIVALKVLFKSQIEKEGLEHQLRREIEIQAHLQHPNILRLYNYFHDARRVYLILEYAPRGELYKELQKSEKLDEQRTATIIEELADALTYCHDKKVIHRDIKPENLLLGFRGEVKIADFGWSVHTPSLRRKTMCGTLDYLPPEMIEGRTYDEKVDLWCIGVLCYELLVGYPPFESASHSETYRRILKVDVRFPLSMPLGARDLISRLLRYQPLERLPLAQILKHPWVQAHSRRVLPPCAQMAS
Kind of assay: Inhibition of aurora-C (unknown origin) using tetra(LRRWSLG) as substrate after 60 mins by scintillation counting.

Assay [7] concerns the target T3, Aurora kinase A (Homo sapiens, UniProt O14965).
T3 sequence (O14965 whole entry): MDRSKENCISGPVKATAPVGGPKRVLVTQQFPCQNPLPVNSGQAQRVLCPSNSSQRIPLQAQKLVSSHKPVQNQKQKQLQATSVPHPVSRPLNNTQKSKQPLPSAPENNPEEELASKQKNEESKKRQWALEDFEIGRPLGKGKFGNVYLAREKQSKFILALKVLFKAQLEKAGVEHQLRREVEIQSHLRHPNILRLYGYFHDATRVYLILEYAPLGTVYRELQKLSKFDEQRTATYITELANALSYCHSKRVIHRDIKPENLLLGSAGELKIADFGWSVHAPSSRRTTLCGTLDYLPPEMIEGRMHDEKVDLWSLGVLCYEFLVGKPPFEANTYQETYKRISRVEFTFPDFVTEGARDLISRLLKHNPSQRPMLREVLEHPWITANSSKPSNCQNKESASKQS
Kind of assay: Inhibition of aurora-A (unknown origin) using tetra(LRRWSLG) as substrate after 60 mins by scintillation counting.

Assay [8] concerns the target Epidermal growth factor receptor (Homo sapiens, UniProt P00533). Kind of assay: Inhibition of EGFR (unknown origin) using poly(Glu,Tyr) as substrate after 60 mins by scintillation counting.
The target of assay [9] is RAC-beta serine/threonine-protein kinase (Homo sapiens) (UniProt P31751). Kind of assay: Inhibition of AKT2 (unknown origin)using GSK3 (14 to 27) as substrate after 60 mins by scintillation counting.
The target of assay [10] is RAC-alpha serine/threonine-protein kinase (Homo sapiens) (UniProt P31749). Kind of assay: Inhibition of AKT1 (unknown origin) using GSK3 (14 to 27) as substrate after 60 mins by scintillation counting.
Assay [11] has as its target T4, Serine/threonine-protein kinase VRK1 (Homo sapiens) (UniProt Q99986).
T4 sequence (whole entry): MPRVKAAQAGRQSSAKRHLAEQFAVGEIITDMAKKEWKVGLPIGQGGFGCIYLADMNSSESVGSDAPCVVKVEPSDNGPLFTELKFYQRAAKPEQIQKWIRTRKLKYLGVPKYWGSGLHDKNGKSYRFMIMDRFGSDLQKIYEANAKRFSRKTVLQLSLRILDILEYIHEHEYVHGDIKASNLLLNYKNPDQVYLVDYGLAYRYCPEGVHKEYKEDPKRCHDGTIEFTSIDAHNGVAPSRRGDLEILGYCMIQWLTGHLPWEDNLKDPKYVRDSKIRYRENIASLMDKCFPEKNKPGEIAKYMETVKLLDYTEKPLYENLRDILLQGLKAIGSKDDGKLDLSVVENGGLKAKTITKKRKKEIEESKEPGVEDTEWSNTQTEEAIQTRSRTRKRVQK
The assay can be described thus: Inhibition of VRK1 (unknown origin) using RBER-CHKtide as substrate after 60 mins by scintillation counting.

Assay [12] concerns the target Serine/threonine-protein kinase PAK 1 (Homo sapiens) (UniProt Q13153). The assay can be described thus: Inhibition of PAK1 (unknown origin) using tetra(LRRWSLG) as substrate after 60 mins by scintillation counting.
Assay [13] addresses Mitogen-activated protein kinase 10 (Homo sapiens) (UniProt P53779). Kind of assay: Inhibition of JNK3 (unknown origin) using ATF2 as substrate after 60 mins by scintillation counting.
The target in assay [14] is Mitogen-activated protein kinase 8 (Homo sapiens) (UniProt P45983). Kind of assay: Inhibition of JNK1 (unknown origin) using ATF2 as substrate after 60 mins by scintillation counting.
The target of assay [15] is Mitogen-activated protein kinase 1 (Homo sapiens) (UniProt P28482). Kind of assay: Inhibition of ERK2 (unknown origin) using RBER-CHKtide as substrate after 60 mins by scintillation counting.
Mitogen-activated protein kinase 1 (Homo sapiens), sequence (P28482 whole entry): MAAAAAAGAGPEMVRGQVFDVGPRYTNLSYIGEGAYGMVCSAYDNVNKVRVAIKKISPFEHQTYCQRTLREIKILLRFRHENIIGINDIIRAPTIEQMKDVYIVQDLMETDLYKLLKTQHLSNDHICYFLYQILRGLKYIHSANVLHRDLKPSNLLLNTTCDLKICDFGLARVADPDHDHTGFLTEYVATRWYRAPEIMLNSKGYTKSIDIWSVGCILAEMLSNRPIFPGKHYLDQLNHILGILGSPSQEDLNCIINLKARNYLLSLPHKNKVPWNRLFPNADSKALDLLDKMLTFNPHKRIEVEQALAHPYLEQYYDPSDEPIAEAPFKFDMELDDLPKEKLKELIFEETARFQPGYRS

Receptor tyrosine-protein kinase erbB-2, sequence (P04626 whole entry, the tested form may be a part): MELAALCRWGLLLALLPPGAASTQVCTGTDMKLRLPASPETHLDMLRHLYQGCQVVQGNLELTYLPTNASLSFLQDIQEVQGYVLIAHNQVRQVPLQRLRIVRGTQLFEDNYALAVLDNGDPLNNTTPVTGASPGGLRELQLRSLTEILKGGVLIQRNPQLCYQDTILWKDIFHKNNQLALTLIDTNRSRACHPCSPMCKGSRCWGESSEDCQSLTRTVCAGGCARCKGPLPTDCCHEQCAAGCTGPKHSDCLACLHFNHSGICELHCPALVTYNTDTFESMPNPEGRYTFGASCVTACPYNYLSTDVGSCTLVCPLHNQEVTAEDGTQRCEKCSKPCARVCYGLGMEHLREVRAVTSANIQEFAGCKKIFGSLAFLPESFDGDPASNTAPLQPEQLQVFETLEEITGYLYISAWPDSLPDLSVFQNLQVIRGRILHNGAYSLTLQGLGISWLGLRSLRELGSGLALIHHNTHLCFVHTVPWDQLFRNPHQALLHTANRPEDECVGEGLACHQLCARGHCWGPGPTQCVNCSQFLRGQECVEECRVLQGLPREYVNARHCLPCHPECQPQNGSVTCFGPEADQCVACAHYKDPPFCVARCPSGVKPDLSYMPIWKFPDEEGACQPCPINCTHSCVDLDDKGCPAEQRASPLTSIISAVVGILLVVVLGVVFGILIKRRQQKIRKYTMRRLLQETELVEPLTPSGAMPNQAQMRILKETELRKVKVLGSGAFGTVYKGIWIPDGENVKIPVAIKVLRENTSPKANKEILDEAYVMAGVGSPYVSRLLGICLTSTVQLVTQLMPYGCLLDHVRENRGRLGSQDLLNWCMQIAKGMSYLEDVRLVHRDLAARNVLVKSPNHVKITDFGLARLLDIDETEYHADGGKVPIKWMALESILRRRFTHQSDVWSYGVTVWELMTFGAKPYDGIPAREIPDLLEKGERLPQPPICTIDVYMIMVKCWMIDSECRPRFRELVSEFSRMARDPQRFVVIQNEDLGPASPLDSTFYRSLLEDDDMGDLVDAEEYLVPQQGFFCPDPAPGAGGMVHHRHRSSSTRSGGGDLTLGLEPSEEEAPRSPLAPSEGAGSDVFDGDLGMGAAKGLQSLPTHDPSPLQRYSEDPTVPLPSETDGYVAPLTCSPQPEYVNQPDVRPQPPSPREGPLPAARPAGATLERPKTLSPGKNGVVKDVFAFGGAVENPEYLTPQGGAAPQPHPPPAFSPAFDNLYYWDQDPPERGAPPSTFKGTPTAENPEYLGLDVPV
Mitogen-activated protein kinase 8 (Homo sapiens), sequence (P45983 whole entry): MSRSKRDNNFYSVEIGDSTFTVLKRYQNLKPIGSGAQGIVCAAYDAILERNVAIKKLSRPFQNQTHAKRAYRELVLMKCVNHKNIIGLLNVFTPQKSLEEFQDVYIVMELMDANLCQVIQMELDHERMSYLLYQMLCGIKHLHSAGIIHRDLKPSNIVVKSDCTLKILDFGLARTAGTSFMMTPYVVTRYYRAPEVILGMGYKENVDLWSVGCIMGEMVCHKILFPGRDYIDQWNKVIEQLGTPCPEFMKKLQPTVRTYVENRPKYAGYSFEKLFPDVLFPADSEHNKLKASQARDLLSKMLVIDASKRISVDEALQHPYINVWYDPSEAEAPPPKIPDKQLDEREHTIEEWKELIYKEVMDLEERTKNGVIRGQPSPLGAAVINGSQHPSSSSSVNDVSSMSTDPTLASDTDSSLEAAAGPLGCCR
Mitogen-activated protein kinase 10 (Homo sapiens), sequence (P53779 whole entry): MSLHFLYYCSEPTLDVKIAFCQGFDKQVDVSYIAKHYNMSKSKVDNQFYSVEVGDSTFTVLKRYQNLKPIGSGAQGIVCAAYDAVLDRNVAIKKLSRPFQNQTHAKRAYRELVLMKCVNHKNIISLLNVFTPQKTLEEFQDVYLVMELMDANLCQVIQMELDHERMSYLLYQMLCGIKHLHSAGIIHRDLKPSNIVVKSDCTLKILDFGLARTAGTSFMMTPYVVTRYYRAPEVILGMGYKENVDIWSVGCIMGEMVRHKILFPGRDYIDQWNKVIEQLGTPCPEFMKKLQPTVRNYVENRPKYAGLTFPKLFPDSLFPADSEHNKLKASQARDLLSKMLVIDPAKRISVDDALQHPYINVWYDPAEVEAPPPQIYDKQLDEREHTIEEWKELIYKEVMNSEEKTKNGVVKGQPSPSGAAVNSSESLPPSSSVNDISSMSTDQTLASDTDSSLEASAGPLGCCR
Serine/threonine-protein kinase PAK 1 (Homo sapiens), sequence (Q13153 whole entry): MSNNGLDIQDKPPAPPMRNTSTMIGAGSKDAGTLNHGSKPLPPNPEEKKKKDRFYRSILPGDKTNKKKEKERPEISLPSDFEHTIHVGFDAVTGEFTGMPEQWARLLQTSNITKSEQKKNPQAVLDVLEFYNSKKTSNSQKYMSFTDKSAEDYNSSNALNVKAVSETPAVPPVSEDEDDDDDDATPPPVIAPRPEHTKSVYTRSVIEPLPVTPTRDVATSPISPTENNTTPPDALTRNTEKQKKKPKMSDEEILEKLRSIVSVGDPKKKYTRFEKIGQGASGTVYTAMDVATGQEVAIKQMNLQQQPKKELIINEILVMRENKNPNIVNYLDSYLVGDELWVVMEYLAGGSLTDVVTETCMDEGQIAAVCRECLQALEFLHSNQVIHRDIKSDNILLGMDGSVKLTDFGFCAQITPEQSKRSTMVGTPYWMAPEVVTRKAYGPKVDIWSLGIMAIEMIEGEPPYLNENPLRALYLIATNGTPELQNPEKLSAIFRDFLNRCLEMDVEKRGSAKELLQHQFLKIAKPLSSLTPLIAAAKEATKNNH
RAC-alpha serine/threonine-protein kinase (Homo sapiens), sequence (P31749 whole entry): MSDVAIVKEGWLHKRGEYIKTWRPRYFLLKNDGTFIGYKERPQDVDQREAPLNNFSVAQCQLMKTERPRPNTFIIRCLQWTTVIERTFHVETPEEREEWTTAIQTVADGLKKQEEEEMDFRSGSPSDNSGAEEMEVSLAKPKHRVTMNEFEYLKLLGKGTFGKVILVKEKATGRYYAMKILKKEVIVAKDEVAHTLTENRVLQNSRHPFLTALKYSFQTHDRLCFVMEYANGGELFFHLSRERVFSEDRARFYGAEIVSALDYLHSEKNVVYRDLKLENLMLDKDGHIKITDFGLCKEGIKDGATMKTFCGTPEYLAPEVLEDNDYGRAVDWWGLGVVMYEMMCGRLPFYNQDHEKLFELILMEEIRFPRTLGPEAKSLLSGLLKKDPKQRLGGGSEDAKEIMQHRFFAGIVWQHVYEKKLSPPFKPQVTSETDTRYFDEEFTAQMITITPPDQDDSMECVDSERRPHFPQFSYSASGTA
RAC-beta serine/threonine-protein kinase (Homo sapiens), sequence (P31751 whole entry): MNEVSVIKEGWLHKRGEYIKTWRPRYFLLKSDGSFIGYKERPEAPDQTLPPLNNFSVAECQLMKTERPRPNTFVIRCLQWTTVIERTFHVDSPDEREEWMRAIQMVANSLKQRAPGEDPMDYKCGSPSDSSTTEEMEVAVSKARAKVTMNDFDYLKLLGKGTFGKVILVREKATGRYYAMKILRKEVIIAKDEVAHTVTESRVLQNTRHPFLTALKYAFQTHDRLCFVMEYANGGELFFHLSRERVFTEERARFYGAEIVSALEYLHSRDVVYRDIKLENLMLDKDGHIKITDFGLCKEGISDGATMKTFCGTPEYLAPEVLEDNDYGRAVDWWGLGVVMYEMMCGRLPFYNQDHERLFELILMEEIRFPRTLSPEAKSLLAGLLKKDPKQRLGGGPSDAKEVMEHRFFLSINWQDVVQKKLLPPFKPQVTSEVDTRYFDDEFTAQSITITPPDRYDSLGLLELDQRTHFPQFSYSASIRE

`O=S(=O)(c1ccc2[nH]c3nccc(Nc4cccc(O)c4)c3c2c1)N1CCN(CCO)CC1`: the negative logarithm of the IC50 (pIC50) (commonly the negative decadic logarithm of the IC50, by convention in mol/L) in assay [1] was 6.42; in assay [2], less than 3.00.
Consider `O=S(=O)(c1ccc2[nH]c3nccc(Nc4cccc(O)c4)c3c2c1)N1CCOCC1`, for which the values for the pIC50 in [1] and in assay [2] were 6.53 and less than 3.00, respectively.
The matching figures for `O=S(=O)(c1ccc2[nH]c3nccc(Nc4cccc(OCc5ccccc5)c4)c3c2c1)N1CCOCC1`: 4.55 and 7.26.
For `CCOc1cccc(Nc2ccnc3[nH]c4ccc(S(=O)(=O)N5CCOCC5)cc4c23)c1`, the pIC50 is 4.26 in assay [1] and 6.39 in [2].
`Oc1cccc(Nc2ccnc3[nH]c4ccc(Br)cc4c23)c1`: the GI50 (in general, the concentration giving 50% growth inhibition) in assay [3] was found to be 1.35 µM; in assay [4] it was 0.44 µM.
As to `CC(=O)c1ccc2[nH]c3nccc(Nc4cccc(Cl)c4)c3c2c1`, the pIC50 in assay [1] is 5.94; in [2], 7.89.
Turning to `CC(=O)c1ccc2[nH]c3nccc(Nc4cccc(O)c4)c3c2c1`, the pIC50 in [1] is 7.89; in [2] it was less than 3.00.
Consider `COc1cccc(Nc2ccnc3[nH]c4ccc(S(=O)(=O)N5CCNCC5)cc4c23)c1`, for which the pIC50 in assay [1] was 6.41; in assay [2] it was 8.32.
The matching figures for `Cc1ccccc1Nc1ccnc2[nH]c3ccccc3c12`: 6.01 and less than 3.00.
In the same order, the values of `CCOc1cccc(Nc2ccnc3[nH]c4ccc(S(=O)(=O)N5CCNCC5)cc4c23)c1` are 6.24 and 7.59.
As for `CC(=O)c1ccc2[nH]c3nccc(Nc4cccc([N+](=O)[O-])c4)c3c2c1`, the pIC50 in [1] is 6.01; in [2] it was 7.68.
In the case of `Clc1ccc(Nc2ccnc3[nH]c4ccccc4c23)cc1`, the values for the pIC50 in assay [1] and in assay [2] were 6.51 and less than 3.00, respectively.
Turning to `COc1cccc(Nc2ccnc3[nH]c4ccc(S(=O)(=O)N5CCOCC5)cc4c23)c1`, the pIC50 was 5.91 in assay [1] and 8.24 in [2].
For the molecule `Clc1cccc(Nc2ccnc3[nH]c4ccccc4c23)c1`, in assay [1], the pIC50 is 7.18.
On to `Oc1cccc(Nc2ccnc3[nH]c4ccccc4c23)c1`, for which the GI50 in assay [3] turned out to be 1 µM; in assay [4] it was 0.89 µM. Further, in assay [5], the inhibition result was “Active”. The pIC50 is 6.59 in assay [6], 6.60 in assay [7], 6.57 in [8] and 5.89 in [1]. In addition, the inhibition result in [9], in assay [10], in [11], in [12], in assay [13] and in [14] was “inactive” in each case. In addition, the inhibition result in assay [15] was “inactive”.
Consider `CCOc1cccc(Nc2ccnc3[nH]c4ccc(S(=O)(=O)N5CCN(CCO)CC5)cc4c23)c1`, for which the pIC50 in [1] is 5.19; in assay [2] it was 6.32.
With `COc1cccc(Nc2ccnc3[nH]c4ccc(S(=O)(=O)N5CCN(CCO)CC5)cc4c23)c1`, the pIC50 is 6.16 in [1] and 8.04 in assay [2].
In the case of `CC(=O)c1ccc2[nH]c3nccc(Nc4cccc(N)c4)c3c2c1`, the pIC50 in [1] is 5.79; in assay [2] it was 8.12.
